Assay results reported in ChEMBL document CHEMBL5046301, “pH-Responsive Antimicrobial Peptide with Selective Killing Activity for Bacterial Abscess Therapy” (J Med Chem, 2022).

Columns and labels:
[1] = tested on: Staphylococcus epidermidis; test: Antibacterial activity against Staphylococcus epidermidis ATCC 12228 assessed as inhibition of bacterial growth at pH 6.5 incubated for 24 hrs by NCCLS protocol based method; type: functional
Staphylococcus aureus [2] = test: Antibacterial activity against methicillin-resistant Staphylococcus aureus ATCC 43300 assessed as inhibition of bacterial growth at pH 7.4 incubated for 24 hrs by NCCLS protocol based method; type: functional
Salmonella typhimurium [3] = test: Antibacterial activity against Salmonella enterica subsp. enterica serovar Typhimurium C77-31 assessed as inhibition of bacterial growth at pH 7.4 incubated for 24 hrs by NCCLS protocol based method; type: functional
Salmonella typhimurium [4] = test: Antibacterial activity against Salmonella typhimurium ATCC 14028 assessed as inhibition of bacterial growth at pH 7.4 incubated for 24 hrs by NCCLS protocol based method; type: functional, Salmonella enterica subsp. enterica serovar Typhimurium; conditions: Salmonella enterica
Escherichia coli [5] = test: Antibacterial activity against Escherichia coli ATCC 25922 assessed as inhibition of bacterial growth at pH 7.4 incubated for 24 hrs by NCCLS protocol based method; type: functional
Pseudomonas aeruginosa [6] = test: Antibacterial activity against Pseudomonas aeruginosa ATCC 27853 assessed as inhibition of bacterial growth at pH 7.4 incubated for 24 hrs by NCCLS protocol based method; type: functional
Staphylococcus aureus [7] = test: Antibacterial activity against Staphylococcus aureus ATCC 29213 assessed as inhibition of bacterial growth at pH 7.4 incubated for 24 hrs by NCCLS protocol based method; type: functional
[8] = tested on: Staphylococcus epidermidis; test: Antibacterial activity against Staphylococcus epidermidis ATCC 12228 assessed as inhibition of bacterial growth at pH 7.4 incubated for 24 hrs by NCCLS protocol based method; type: functional
Staphylococcus aureus [9] = test: Antibacterial activity against Staphylococcus aureus ATCC 25923 assessed as inhibition of bacterial growth at pH 7.4 incubated for 24 hrs by NCCLS protocol based method; type: functional
Salmonella typhimurium [10] = test: Antibacterial activity against Salmonella enterica subsp. enterica serovar Typhimurium C77-31 assessed as inhibition of bacterial growth at pH 6.5 incubated for 24 hrs by NCCLS protocol based method; type: functional
Salmonella typhimurium [11] = test: Antibacterial activity against Salmonella typhimurium ATCC 14028 assessed as inhibition of bacterial growth at pH 6.5 incubated for 24 hrs by NCCLS protocol based method; type: functional, Salmonella enterica subsp. enterica serovar Typhimurium; conditions: Salmonella enterica
Escherichia coli [12] = test: Antibacterial activity against Escherichia coli ATCC 25922 assessed as inhibition of bacterial growth at pH 6.5 incubated for 24 hrs by NCCLS protocol based method; type: functional
Pseudomonas aeruginosa [13] = test: Antibacterial activity against Pseudomonas aeruginosa ATCC 27853 assessed as inhibition of bacterial growth at pH 6.5 incubated for 24 hrs by NCCLS protocol based method; type: functional
Staphylococcus aureus [14] = test: Antibacterial activity against Staphylococcus aureus ATCC 29213 assessed as inhibition of bacterial growth at pH 6.5 incubated for 24 hrs by NCCLS protocol based method; type: functional
Staphylococcus aureus [15] = test: Antibacterial activity against Staphylococcus aureus ATCC 25923 assessed as inhibition of bacterial growth at pH 6.5 incubated for 24 hrs by NCCLS protocol based method; type: functional
Staphylococcus aureus [16] = test: Antibacterial activity against methicillin-resistant Staphylococcus aureus ATCC 43300 assessed as inhibition of bacterial growth at pH 6.5 incubated for 24 hrs by NCCLS protocol based method; type: functional
[17] = Hemolytic activity in human RBC assessed as hemoglobin release at pH 7.4 incubated for 1 hr; type: toxicity, cell-based; conditions: erythrocyte, pH 7.4, 1 h
[18] = Hemolytic activity against human RBC assessed as hemoglobin release at pH 6.5 incubated for 1 hrs; type: toxicity, cell-based; conditions: erythrocyte, pH 6.5, 1 h
[19] = Cytotoxicity against mouse RAW264.7 cells assessed as inhibition of cell growth at pH 7.4 measured after 24 hrs by MTT assay; type: toxicity, cell-based
[20] = Cytotoxicity against mouse RAW264.7 cells assessed as inhibition of cell growth at pH 6.5 measured after 24 hrs by MTT assay; type: toxicity, cell-based
[21] = Ratio of MHC for hemolytic activity against human RBC assessed as hemoglobin release at pH 6.5 to MHC for hemolytic activity against human RBC assessed as hemoglobin release at pH 7.4; type: toxicity, cell-based, Erythrocyte; conditions: human red blood cells (RBC)

H-HLDHLIPHVIHGLVHAIHH-NH2
64 µM: MIC (Salmonella typhimurium [10]) | MIC (Salmonella typhimurium [11])
> 128 µM: MHC10 [17] | MHC10 [18] | IC50 at 24 h [19] | IC50 at 24 h [20]
> 64 µM: MIC [1] | MIC (Staphylococcus aureus [2]) | MIC (Salmonella typhimurium [3]) | MIC (Salmonella typhimurium [4]) | MIC (Escherichia coli [5]) | MIC (Pseudomonas aeruginosa [6]) | MIC (Staphylococcus aureus [7]) | MIC [8] | MIC (Staphylococcus aureus [9]) | MIC (Staphylococcus aureus [14]) | MIC (Staphylococcus aureus [15]) | MIC (Staphylococcus aureus [16])
32 µM: MIC (Pseudomonas aeruginosa [13])
8 µM: MIC (Escherichia coli [12])

H-DLDHLIPHVIHGLVHAIHH-NH2
32 µM: MIC (Escherichia coli [12])
> 128 µM: MHC10 [17] | MHC10 [18] | IC50 at 24 h [19] | IC50 at 24 h [20]
> 64 µM: MIC [1] | MIC (Staphylococcus aureus [2]) | MIC (Salmonella typhimurium [3]) | MIC (Salmonella typhimurium [4]) | MIC (Escherichia coli [5]) | MIC (Pseudomonas aeruginosa [6]) | MIC (Staphylococcus aureus [7]) | MIC [8] | MIC (Staphylococcus aureus [9]) | MIC (Salmonella typhimurium [10]) | MIC (Salmonella typhimurium [11]) | MIC (Pseudomonas aeruginosa [13]) | MIC (Staphylococcus aureus [14]) | MIC (Staphylococcus aureus [15]) | MIC (Staphylococcus aureus [16])

H-FLFHLIPHVIHGLVKAIRK-NH2
0.25: selectivity ratio [21]
3.15 µM: IC50 at 24 h [20]
8 µM: MIC (Salmonella typhimurium [4])
1 µM: MIC [1] | MIC [8] | MIC (Escherichia coli [12]) | MIC (Pseudomonas aeruginosa [13]) | MIC (Staphylococcus aureus [14]) | MIC (Staphylococcus aureus [15]) | MIC (Staphylococcus aureus [16])
4.41 µM: IC50 at 24 h [19]
2 µM: MIC (Staphylococcus aureus [2]) | MIC (Escherichia coli [5]) | MIC (Staphylococcus aureus [7]) | MIC (Staphylococcus aureus [9]) | MIC (Salmonella typhimurium [10])
4 µM: MIC (Salmonella typhimurium [3]) | MIC (Pseudomonas aeruginosa [6]) | MIC (Salmonella typhimurium [11]) | MHC10 [18]
16 µM: MHC10 [17]

H-FLDHLIPHVIHGLVHAIHH-NH2
> 128 µM: MHC10 [17] | MHC10 [18]
16 µM: MIC (Salmonella typhimurium [10]) | MIC (Salmonella typhimurium [11])
8 µM: MIC (Pseudomonas aeruginosa [13])
4 µM: MIC (Escherichia coli [12])
67.9 µM: IC50 at 24 h [19] | IC50 at 24 h [20]
> 64 µM: MIC [1] | MIC (Staphylococcus aureus [2]) | MIC (Salmonella typhimurium [3]) | MIC (Salmonella typhimurium [4]) | MIC (Escherichia coli [5]) | MIC (Pseudomonas aeruginosa [6]) | MIC (Staphylococcus aureus [7]) | MIC [8] | MIC (Staphylococcus aureus [9]) | MIC (Staphylococcus aureus [14]) | MIC (Staphylococcus aureus [15]) | MIC (Staphylococcus aureus [16])

H-HLEHLIPHVIHGLVHAIHH-NH2
> 128 µM: MHC10 [17] | MHC10 [18] | IC50 at 24 h [19] | IC50 at 24 h [20]
32 µM: MIC (Pseudomonas aeruginosa [13])
> 64 µM: MIC [1] | MIC (Staphylococcus aureus [2]) | MIC (Salmonella typhimurium [3]) | MIC (Salmonella typhimurium [4]) | MIC (Escherichia coli [5]) | MIC (Pseudomonas aeruginosa [6]) | MIC (Staphylococcus aureus [7]) | MIC [8] | MIC (Staphylococcus aureus [9]) | MIC (Salmonella typhimurium [10]) | MIC (Staphylococcus aureus [14]) | MIC (Staphylococcus aureus [15]) | MIC (Staphylococcus aureus [16])
64 µM: MIC (Salmonella typhimurium [11])
4 µM: MIC (Escherichia coli [12])

H-HLHHLIPHVIHGLVHAIHH-NH2
64 µM: MIC (Salmonella typhimurium [3]) | MIC (Salmonella typhimurium [4])
16 µM: MIC (Staphylococcus aureus [2]) | MIC (Escherichia coli [5])
32 µM: MIC [8] | MIC (Staphylococcus aureus [9])
66 µM: IC50 at 24 h [19]
2 µM: MIC (Salmonella typhimurium [10]) | MIC (Escherichia coli [12])
58.3 µM: IC50 at 24 h [20]
8 µM: MIC (Salmonella typhimurium [11]) | MIC (Pseudomonas aeruginosa [13])
> 64 µM: MIC [1] | MIC (Pseudomonas aeruginosa [6]) | MIC (Staphylococcus aureus [7]) | MIC (Staphylococcus aureus [14]) | MIC (Staphylococcus aureus [15]) | MIC (Staphylococcus aureus [16])
> 128 µM: MHC10 [17] | MHC10 [18]

H-FLFHLIPHVIHGLVHAIHH-NH2
16 µM: MIC (Salmonella typhimurium [11]) | MHC10 [17]
64 µM: MIC (Salmonella typhimurium [3]) | MIC (Salmonella typhimurium [4]) | MIC (Pseudomonas aeruginosa [6])
2 µM: MIC [1] | MIC (Escherichia coli [12]) | MIC (Pseudomonas aeruginosa [13]) | MIC (Staphylococcus aureus [15]) | MIC (Staphylococcus aureus [16])
12.3 µM: IC50 at 24 h [19]
0.5: selectivity ratio [21]
4 µM: MIC (Staphylococcus aureus [2]) | MIC (Escherichia coli [5]) | MIC (Staphylococcus aureus [7]) | MIC [8] | MIC (Staphylococcus aureus [9]) | MIC (Staphylococcus aureus [14])
8 µM: MIC (Salmonella typhimurium [10]) | MHC10 [18]
4.79 µM: IC50 at 24 h [20]

H-FLFKLIPKVIKGLVHAIHH-NH2
8 µM: MIC (Salmonella typhimurium [3]) | MIC (Salmonella typhimurium [4]) | MIC (Pseudomonas aeruginosa [6])
32 µM: MHC10 [18]
2 µM: MIC [1] | MIC (Staphylococcus aureus [2]) | MIC (Staphylococcus aureus [7]) | MIC [8] | MIC (Staphylococcus aureus [9]) | MIC (Staphylococcus aureus [14]) | MIC (Staphylococcus aureus [15]) | MIC (Staphylococcus aureus [16])
0.5: selectivity ratio [21]
4 µM: MIC (Escherichia coli [5]) | MIC (Salmonella typhimurium [10]) | MIC (Salmonella typhimurium [11]) | MIC (Escherichia coli [12]) | MIC (Pseudomonas aeruginosa [13])
2.96 µM: IC50 at 24 h [20]
4.37 µM: IC50 at 24 h [19]
64 µM: MHC10 [17]

H-ELEHLIPHVIHGLVHAIHH-NH2
32 µM: MIC (Escherichia coli [12])
> 64 µM: MIC [1] | MIC (Staphylococcus aureus [2]) | MIC (Salmonella typhimurium [3]) | MIC (Salmonella typhimurium [4]) | MIC (Escherichia coli [5]) | MIC (Pseudomonas aeruginosa [6]) | MIC (Staphylococcus aureus [7]) | MIC [8] | MIC (Staphylococcus aureus [9]) | MIC (Salmonella typhimurium [10]) | MIC (Salmonella typhimurium [11]) | MIC (Pseudomonas aeruginosa [13]) | MIC (Staphylococcus aureus [14]) | MIC (Staphylococcus aureus [15]) | MIC (Staphylococcus aureus [16])
> 128 µM: MHC10 [17] | MHC10 [18] | IC50 at 24 h [19] | IC50 at 24 h [20]
